This passage reports MIC and IC50 results from ChEMBL document CHEMBL1139710, “Syntheses and studies of quinolone-cephalosporins as potential anti-tuberculosis agents” (Bioorg Med Chem Lett, 2006).

The structures appear in SMILES notation. Converted amounts (≈) assume the structure as drawn.

Assay [1] has as its system Pseudomonas aeruginosa. The experiment in a line: Antibacterial activity against Pseudomonas aeruginosa KW 799/ 61 permeability mutant. It counts as functional.
Assay [2] has as its system Mycobacterium tuberculosis. The experiment in a line: Antibacterial activity against Mycobacterium tuberculosis H37Rv by microplate alamar blue assay. It counts as functional.
In assay [3] the test system is Mycolicibacterium aurum. The experiment in a line: Antibacterial activity against Mycobacterium aurum SB66. It counts as functional.
Assay [4] deals with Mycolicibacterium fortuitum. The assay can be described thus: Antibacterial activity against Mycobacterium fortuitum B. It counts as functional.
In assay [5] the test system is Staphylococcus aureus. The assay can be described thus: Antibacterial activity against Staphylococcus aureus SG 511. It counts as functional.
Assay [6] has as its system Escherichia coli. The assay can be described thus: Antibacterial activity against Escherichia coli DC0. It counts as functional, organism-based.
For assay [7], the system named is Micrococcus luteus. The assay can be described thus: Antibacterial activity against Micrococcus luteus ATCC 10240. It counts as functional.
For assay [8], the system named is Mycolicibacterium aurum. The experiment in a line: Antibacterial activity against Mycobacterium aurum DSM 43436. It counts as functional.
Assay [9] relates to Pseudomonas aeruginosa. The experiment in a line: Antibacterial activity against Pseudomonas aeruginosa KW 799. It counts as functional.
Assay [10] relates to Staphylococcus aureus. The assay can be described thus: Antibacterial activity against Staphylococcus aureus 134/93 MRSA. It counts as functional.
Assay [11] deals with Enterobacter cloacae. The assay can be described thus: Antibacterial activity against Enterobacter cloacae P99. It counts as functional.
The subject of assay [12] is Mycolicibacterium vaccae. The assay can be described thus: Antibacterial activity against Mycobacterium vaccae IMET10670. It counts as functional.
Assay [13] relates to Mycolicibacterium smegmatis. The experiment in a line: Antibacterial activity against Mycobacterium smegmatis SG987. It counts as functional.
The test system of assay [14] is Escherichia coli. The assay can be described thus: Antibacterial activity against Escherichia coli DC2 permeability mutant. It counts as functional.
The test system of assay [15] is Enterococcus faecalis. The experiment in a line: Antibacterial activity against Enterococcus faecalis 1528 VRE. It counts as functional.
For assay [16], the system named is Vero. The assay can be described thus: Cytotoxicity against Vero cells. It counts as cell-based. To be noted: Chlorocebus sabaeus.

One may read the MIC as the smallest concentration in the dilution series that meets the test's criterion for growth inhibition. `O=C(Cc1ccccc1)N[C@@H]1C(=O)N2C(C(=O)OC(c3ccccc3)c3ccccc3)=C(CO)CS[C@H]12`: the MIC was 100 µM (≈ 51.5 µg/mL) in [1]; above 128 µM in assay [2]; 50 µM (≈ 25.7 µg/mL) in [3]; 200 µM (≈ 103 µg/mL) in assay [4]; 3.12 µM (≈ 1.61 µg/mL) in [5]; above 200 µM in [6]. For the same molecule, the minimal inhibitory concentration (MIC) in assay [7] was 25 µM (≈ 12.9 µg/mL); in assay [8], 25 µM (≈ 12.9 µg/mL); in [9], 100 µM (≈ 51.5 µg/mL); in assay [10] it was above 200 µM; in assay [11] it was 200 µM (≈ 103 µg/mL); in assay [12], 200 µM (≈ 103 µg/mL). Further, the MIC in assay [13], in assay [14] and in assay [15] was 200 µM (≈ 103 µg/mL) each time.

In general, IC50 refers to the point on the concentration scale where inhibition reaches its midpoint. Higher therefore signals lower potency. Regarding `COc1ccc(COC(=O)C2=C(CN3CCN(c4cc5c(cc4F)c(=O)c(C(=O)O)cn5C4CC4)CC3)CS[C@@H]3[C@H](NC(=O)Cc4ccccc4)C(=O)N23)cc1`, the MIC in assay [1] came to 12.5 µM (≈ 9.77 µg/mL); in assay [2], 62.3 µM (≈ 48.7 µg/mL); in assay [3], 0.8 µM (≈ 0.625 µg/mL); in [4], 12.5 µM (≈ 9.77 µg/mL); in assay [5], 1.56 µM (≈ 1.22 µg/mL); in assay [6] it was 25 µM (≈ 19.5 µg/mL). In addition, the minimum inhibitory concentration (MIC) in assay [7] was 3.12 µM (≈ 2.44 µg/mL); in assay [8], 1.56 µM (≈ 1.22 µg/mL); in assay [9], 12.5 µM (≈ 9.77 µg/mL); in assay [10], above 200 µM; in assay [11], 0.4 µM (≈ 0.313 µg/mL); in [12] it was 3.12 µM (≈ 2.44 µg/mL). The values for the MIC in assay [13], in [14] and in assay [15] were 12.5 µM (≈ 9.77 µg/mL), 6.25 µM (≈ 4.89 µg/mL) and 50 µM (≈ 39.1 µg/mL), respectively. This molecule yielded a concentration for half-maximal inhibition (IC50) in [16] of 13.1 µM.

As for `O=C(Cc1ccccc1)N[C@@H]1C(=O)N2C(C(=O)O)=C(COC(=O)N3CCN(c4cc5c(cc4F)c(=O)c(C(=O)O)cn5C4CC4)CC3)CS[C@H]12`, the MIC was 3.12 µM (≈ 2.2 µg/mL) in assay [1]; 1.6 µM (≈ 1.13 µg/mL) in assay [2]; 0.2 µM (≈ 0.141 µg/mL) in assay [3]; 0.8 µM (≈ 0.565 µg/mL) in assay [4]; 0.4 µM (≈ 0.282 µg/mL) in assay [5]; 3.12 µM (≈ 2.2 µg/mL) in assay [6]. Further, the MIC turned out to be 0.2 µM (≈ 0.141 µg/mL) in assay [7]; 0.2 µM (≈ 0.141 µg/mL) in [8]; 3.12 µM (≈ 2.2 µg/mL) in assay [9]; 200 µM (≈ 141 µg/mL) in assay [10]; 0.2 µM (≈ 0.141 µg/mL) in [11]; 1.56 µM (≈ 1.1 µg/mL) in [12]. Moreover, the MIC in assay [13] stood at 3.12 µM (≈ 2.2 µg/mL); in assay [14], 0.8 µM (≈ 0.565 µg/mL); in [15], 6.25 µM (≈ 4.41 µg/mL). In addition, the IC50 in assay [16] was above 128 µM.

For `O=C(Cc1ccccc1)N[C@@H]1C(=O)N2C(C(=O)OC(c3ccccc3)c3ccccc3)=C(COC(=O)N3CCN(c4cc5c(cc4F)c(=O)c(C(=O)O)cn5C4CC4)CC3)CS[C@H]12`, the MIC in assay [1] turned out to be 1.56 µM (≈ 1.36 µg/mL); in [2], 8 µM (≈ 6.98 µg/mL); in [3] it was 0.2 µM (≈ 0.174 µg/mL); in assay [4], 0.8 µM (≈ 0.698 µg/mL); in assay [5], 0.2 µM (≈ 0.174 µg/mL); in assay [7], 12.5 µM (≈ 10.9 µg/mL). The minimal inhibitory concentration (MIC) in [8] was 0.2 µM (≈ 0.174 µg/mL); in [9], 1.56 µM (≈ 1.36 µg/mL); in assay [10] it was 100 µM (≈ 87.2 µg/mL); in assay [11], below 0.1 µM; in assay [12], 1.56 µM (≈ 1.36 µg/mL); in assay [13], 1.56 µM (≈ 1.36 µg/mL). In addition, the results for the MIC in [14] and in assay [15] were 0.2 µM (≈ 0.174 µg/mL) and 3.12 µM (≈ 2.72 µg/mL), respectively. The half-maximal inhibitory concentration (IC50) in assay [6] is 1.56 µM; in assay [16], above 128 µM.

With `O=C(Cc1ccccc1)N[C@@H]1C(=O)N2C(C(=O)O)=C(CN3CCN(c4cc5c(cc4F)c(=O)c(C(=O)O)cn5C4CC4)CC3)CS[C@H]12`, the MIC worked out at 1.56 µM (≈ 1.03 µg/mL) in assay [1]; 3.8 µM (≈ 2.51 µg/mL) in [2]; 0.4 µM (≈ 0.265 µg/mL) in [3]; 3.12 µM (≈ 2.06 µg/mL) in [4]; 1.56 µM (≈ 1.03 µg/mL) in [5]; 3.12 µM (≈ 2.06 µg/mL) in [6]. Further, the MIC in assay [7] came out at 0.4 µM (≈ 0.265 µg/mL); in assay [8] it was 0.4 µM (≈ 0.265 µg/mL); in [9], 1.56 µM (≈ 1.03 µg/mL); in [10] it was 200 µM (≈ 132 µg/mL); in [11] it was 0.1 µM (≈ 0.0662 µg/mL); in assay [12], 3.12 µM (≈ 2.06 µg/mL). Besides, the MIC turned out to be 3.12 µM (≈ 2.06 µg/mL) in assay [13], 0.8 µM (≈ 0.529 µg/mL) in assay [14] and 12.5 µM (≈ 8.27 µg/mL) in assay [15]. The molecule also yielded an IC50 in [16] above 128 µM.

On to `COc1ccc(COC(=O)C2=C(CI)CS[C@@H]3[C@H](NC(=O)Cc4ccccc4)C(=O)N23)cc1`, for which the MIC is 100 µM (≈ 57.8 µg/mL) in assay [1]; above 128 µM in assay [2]; 100 µM (≈ 57.8 µg/mL) in assay [3]; 200 µM (≈ 116 µg/mL) in [4]; 6.25 µM (≈ 3.62 µg/mL) in assay [5]; 200 µM (≈ 116 µg/mL) in assay [6]. For the same molecule, the minimal inhibitory concentration (MIC) in assay [7] is 100 µM (≈ 57.8 µg/mL); in assay [8], 50 µM (≈ 28.9 µg/mL); in assay [9], 100 µM (≈ 57.8 µg/mL); in assay [10], above 200 µM; in assay [11], 100 µM (≈ 57.8 µg/mL); in assay [12], 100 µM (≈ 57.8 µg/mL). Moreover, the MIC in [13] was above 200 µM; in assay [14], 200 µM (≈ 116 µg/mL); in assay [15] it was 200 µM (≈ 116 µg/mL).

For `COc1ccc(COC(=O)C2=C(CCl)CS[C@@H]3[C@H](NC(=O)Cc4ccccc4)C(=O)N23)cc1`, the minimum inhibitory concentration (MIC) in assay [1] stood at 50 µM (≈ 24.3 µg/mL); in [2] it was 31.5 µM (≈ 15.3 µg/mL); in [4] it was 100 µM (≈ 48.7 µg/mL); in assay [5], 1.56 µM (≈ 0.76 µg/mL); in [6], 200 µM (≈ 97.4 µg/mL); in assay [7] it was 50 µM (≈ 24.3 µg/mL). Further, the minimum inhibitory concentration (MIC) in assay [9] and in assay [12] was 100 µM (≈ 48.7 µg/mL) each time.

Take `O=C(O)c1cn(C2CC2)c2cc(N3CCNCC3)c(F)cc2c1=O` [CIPROFLOXACIN]: the MIC was determined as 0.4 µM (≈ 0.133 µg/mL) in assay [1]; 1.8 µM (≈ 0.596 µg/mL) in assay [2]; 0.1 µM (≈ 0.0331 µg/mL) in assay [3]; 0.2 µM (≈ 0.0663 µg/mL) in [4]; 0.8 µM (≈ 0.265 µg/mL) in assay [5]; 0.4 µM (≈ 0.133 µg/mL) in [6]. Also, the MIC is 25 µM (≈ 8.28 µg/mL) in assay [7]; 0.1 µM (≈ 0.0331 µg/mL) in [8]; 0.8 µM (≈ 0.265 µg/mL) in [9]; 50 µM (≈ 16.6 µg/mL) in assay [10]; 0.8 µM (≈ 0.265 µg/mL) in assay [12]; 0.8 µM (≈ 0.265 µg/mL) in assay [13]. For the same molecule, the results for the MIC in assay [14] and in [15] were below 0.1 µM and 1.56 µM (≈ 0.517 µg/mL), respectively.
